Measurements as given in patent publication US20060009428A1, “Cyclic progestin regimens and kits” (Wyeth, priority 2004, published 2006).
“And” between values parts separate entries of the source, which are not always exact repeats. Identical values can stand only once.

Legend:
Type in all cases: in vivo
[1] = target: T1, progesterone receptor (Rattus norvegicus, UniProt Q63449); assay: Rat uterine decidualization assay in adult ovariectomized rats; conditions: for ED50: rat, read-out: Rat Decidual Assay ED50
T1 construct: the uterine decidualization assay in adult ovariectomized rats; from tissue; host or cells: uterus of live ovariectomized Sprague-Dawley rats (in vivo)
T1 sequence (Q63449 1-923): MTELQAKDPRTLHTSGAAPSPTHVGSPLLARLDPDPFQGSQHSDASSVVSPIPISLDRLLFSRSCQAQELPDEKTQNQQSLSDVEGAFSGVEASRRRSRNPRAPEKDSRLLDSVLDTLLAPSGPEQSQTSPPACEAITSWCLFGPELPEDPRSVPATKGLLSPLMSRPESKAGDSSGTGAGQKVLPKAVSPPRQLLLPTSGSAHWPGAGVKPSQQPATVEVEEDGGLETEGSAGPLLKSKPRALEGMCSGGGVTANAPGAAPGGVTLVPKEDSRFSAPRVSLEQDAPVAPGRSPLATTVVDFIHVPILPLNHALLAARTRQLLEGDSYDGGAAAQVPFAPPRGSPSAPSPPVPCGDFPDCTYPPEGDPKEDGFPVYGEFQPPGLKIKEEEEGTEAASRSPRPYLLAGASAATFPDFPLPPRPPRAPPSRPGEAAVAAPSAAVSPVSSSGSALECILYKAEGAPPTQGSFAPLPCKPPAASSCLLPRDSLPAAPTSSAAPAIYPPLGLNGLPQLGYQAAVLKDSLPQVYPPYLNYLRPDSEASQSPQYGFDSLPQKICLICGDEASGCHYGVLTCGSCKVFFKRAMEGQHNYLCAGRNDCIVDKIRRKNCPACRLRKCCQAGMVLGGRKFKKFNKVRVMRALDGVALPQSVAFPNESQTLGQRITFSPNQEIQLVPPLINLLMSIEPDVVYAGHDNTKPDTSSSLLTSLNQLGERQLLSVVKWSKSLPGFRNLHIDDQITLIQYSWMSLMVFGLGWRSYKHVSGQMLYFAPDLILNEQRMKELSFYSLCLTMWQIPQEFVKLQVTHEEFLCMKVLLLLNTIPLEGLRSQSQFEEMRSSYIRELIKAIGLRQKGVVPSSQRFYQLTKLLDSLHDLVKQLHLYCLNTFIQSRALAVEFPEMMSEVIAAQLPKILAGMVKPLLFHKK
Protocol: The second rat model to determine progestational activity is the uterine decidualization assay in adult ovariectomized rats.
Briefly, mature female Sprague-Dawley rats (˜220 g) were ovariectomized at least 10 days prior to treatment to reduce circulating sex steroids. […] Approximately 24 hours after the third daily treatment, decidualization was induced in onel uterine horn of each anesthetized rat by scratching the antimesometrial luminal epithelium with a blunt 21-gauge needle. The contralateral horn was not scratched and served as a non-stimulated control. Animals were euthanized by CO2 asphyxiation 24 hoursr following the final treatment. The uteri were removed, and trimmed of fat, and the decidualized (D) and control (C) horns were weighed separately. The decidual response is expressed as D/C.

[2] = test system: rabbit endometrial transformation; assay: Rabbit endometrial transformation (Clauberg) assay; conditions: for ED50: Oryctolagus cuniculus, 120 h, read-out: Rabbit Clauberg Assay estimated ED50 (AED50)
Protocol: In addition to the rat progestational models described above, NSP-989 was also evaluated in the Clauberg model, a classic progestational assay in the rabbit endometrial transformation model [McPhail MK, “The assay of progestin.” J Physiol. 1934; 83:145-1567]. Briefly, immature female New Zealand White rabbits (˜1 kg body weight) were injected subcutaneously with 5 μg 17β-estradiol (E2)/rabbit/day for six consecutive days. Beginning 24 hours after the final E2 injection, vehicle alone or test compounds were given orally for (5) five consecutive days. Progestational activity was determined by increases in uterine weight and endometrial glandular arborization (McPhail Index).

[3] = test system: ovulation in adult female rats; assay: Rat ovulation inhibition assay; conditions: po, once daily for 4 days, Sprague-Dawley rats
Protocol: The ovulation inhibition assay measures a compound's ability to inhibit ovulation in adult female rats. This activity is essential for contraceptive efficacy.
Random cycling mature female Sprague-Dawley rats (˜200 g) were obtained from Charles River Laboratory (Boston, Mass.). Rats were synchronized for estrus with 2 μg of LHRH (in phosphate buffered saline containing 0.1% bovine serum albumin) administered subcutaneously (sc) per rat at 0900 h and again at 1600 h. Animals were allowed to rest for 8 days before the administration of test compounds. Animals were then grouped, with 7 to 9 rats per treatment group. The morning of the ninth day following LHRH treatment, the rats were treated with test compounds once daily, by gavage. This continued for 4 consecutive days. The animals were euthanized the morning following the last treatment. Oviducts were removed, placed between 2 glass slides, and viewed through a dissecting microscope to count ova. The number of animals presenting ova in the oviduct from each treatment group and the number of ova in the oviduct of each animal were recorded.

[4] = test system: estrogen-induced C3 expression in the uterine epithelium; assay: Adult ovariectomized rat uterine C3 model; conditions: po, once daily for 2 days, with EE 0.08 mg/kg on day 2; for ED50: Rattus norvegicus, 48 h
Protocol: The third model for PR agonist activity was the adult ovariectomized rat uterine C3 model. This assay evaluates the ability of a progestin to block estrogen-induced C3 expression in the uterine epithelium.
Ovariectomized female, 60 day-old Sprague-Dawley rats were obtained from Harlan (Indianapolis, Ind.). Ovariectomies were performed by the supplier a minimum of 8 days prior tobefore treatment. The rats were randomized and placed in groups of 6. The animals were treated once daily for (2) two days orally by gavage (p.o.) in a volume of 0.5 mL. On the second day of treatment, the animals were also treated with EE (0.08 mg/kg body weight (BW)) orally by gavage. Approximately 24 hours after the final treatment, the animals were euthanized by CO2 asphyxiation. The uteri were then removed, stripped of remaining fat and mesentery, weighed, and snap-frozen on dry ice. Total RNA was isolated from the uteri using the Trizol Reagent (GibcoBRL) as described by the manufacturer. Real-time reverse transcription polymerase chain reaction (RT-PCR) as previously reported [Sampath D, et al., “Aberrant expression of Cyr61, a member of the CCN (CTGF/Cyr61/Cef10/NOVH) family, and dysregulation by 17b-estradiol and basic fibroblast growth factor in human uterine leiomyomas” J Clin Endocrinol Metab. 2001; 86:1707-1715] was used to quantitate complement C3 expression. Briefly, RNA samples were DNAse-I treated using a DNA-free kit (Ambion). A total of 50 ng of RNA was analyzed in triplicate using C3 specific primer pair (5′primer […] [SEQ ID NO: 1], 3]primer […] [SEQ ID NO: 2]) and customized probe (6FAM-[…]-TAMRA [SEQ ID NO: 3]). C3 messenger RNA (mRNA) levels were normalized to 18s 18S ribosomal RNA contained within each sample reaction using primers and probe supplied by PE Applied Biosystems.

[5] = po, once daily for 7 days, ovariectomized rats
[6] = po, 5 days, estradiol-primed immature rabbits, limited dose response studies

| ED50 [1, 5] [mg/kg] | Potency in decidualization relative to MPA (fold more potent) ([1]; versus MPA) | Potency in decidualization relative to TMG (fold more potent) ([1]; versus TMG) [fold] | Rat Decidual Assay ED50 [1, 5] [mg/kg] | SMILES | ED50 [2, 6] [mg/kg] | Rat Ovulation Inhibition Assay ED100 [3] | ED50 [4] [mg/kg] | Potency in Clauberg assay relative to MPA (fold more potent) ([2]; versus MPA) | Rabbit Clauberg Assay estimated ED50 (AED50) [2, 6] [µg/kg] | Rat C3 Assay ED50 [4] [µg/kg] |
| --- | --- | --- | --- | --- | --- | --- | --- | --- | --- | --- |
| 0.4 | – | – | – | CC(=O)O[C@]1(C(C)=O)CC[C@H]2[C@@H]3C[C@H](C)C4=CC(=O)CC[C@]4(C)[C@H]3CC[C@@]21C [MPA, medroxyprogesterone acetate] | 0.03 | 1 mg/kg and 1.0 mg/kg | 0.03 | – | – | – |
| 0.01 | approximately 40 fold | ~100 | – | Cn1c(C#N)ccc1-c1ccc2c(c1)C(C)(C)OC(=S)N2 [NSP-989, 5-(4,4-Dimethyl-2-thioxo-1,4-dihydro-2H-benzo[d] [1,3]oxazin-6-yl)-1-methyl-1H-pyrrole-2-carbonitrile] | 0.001 | 0.03 mg/kg | 0.0005 | about 30 fold | – | – |
| – | – | – | 1.0 | C[C@H](O)C(=O)[C@@]1(C)CC[C@H]2[C@@H]3CCC4=CC(=O)CCC4=C3CC[C@@]21C [TMG, trimegestone] | – | 1 mg/kg and 1.0 mg/kg | – | – | 1 | 5 |
